Columns and labels:
[1] = Absorption and emission spectra of the exogenous fluorescent agent (FIG. 3); type: physicochemical
Excerpt: By way of illustrative example, FIG. 3 is a graph summarizing the absorption spectra for HbO2 and Hb, as well as the absorption and emission spectra of frequency spectra of MB-102, an exogenous fluorescent agent in one aspect. Emission spectra for a blue LED light source and a green LED light source are also shown superimposed over the other spectra of FIG. 3. In this aspect, the system 200 may include a blue LED as the first light source 218, and the excitatory wavelength for the system 200 may be the isosbestic wavelength of about 450 nm. […] However, at wavelengths above about 500 nm, the HbO2/Hb spectra are less steeply sloped, and a broader band light source including, but not limited to, an LED with a bandpass filter may suffice for use as a first light source 218.
In another aspect, the excitatory wave length may be selected to enhance the contrast in light absorbance between the exogenous fluorescent agent and the chromophores within the tissues of the patient 202. […] Without being limited to any particular theory, a higher proportion of light illuminating the tissue of the patient 202 at a wavelength of about 450 nm will be absorbed by the MB-102 relative to the HbO2 and Hb, thus enhancing the efficiency of absorption by the MB-102 and reducing the intensity of light at the excitatory wavelength needed to elicit a detectable fluorescence signal. […]

[2] = Transdermal fluorescence monitoring of renal elimination of the agent during perturbations (Example 1); type: in vivo; details: pig, time points later than 2 hours after agent injection, no baseline subtraction, FIG. 21B
Excerpt: A system similar to the system 200 described herein above was used to monitor the fluorescence produced during the renal elimination of an exogenous fluorescent agent, MB-102, using the methods described herein above, in particular the diffuse reflectance data correction method.
FIG. 21A is a graph summarizing the changes in the magnitude of the raw fluorescence signal (Flr) just prior to injection of the MB-102 fluorescent agent into a pig and for about six hours post-injection. During the post-equilibration portion, corresponding to a time of about 13:45 in FIG. 21A, the pig was subjected to a series of perturbations selected to vary the optical properties of the pig's skin and/or underlying tissues: administration of blood pressure medications to induce vasodilation/vasorestriction 2102, application of pressure to compress the tissue 2104, lateral movement of the sensor head 2106, SpO2 decrease 2108, SpO2 decrease 2110, remove/replace sensor head 2112/2114, and skin cooling 2116.
FIG. 21B is a graph summarizing the corrected intrinsic fluorescence signal (IF) corrected as described herein above with no baseline subtraction.

[3] = Transdermal fluorescence measurements from a patient before and after injection of the agent (FIG. 15); type: in vivo; details: about 10 hours after injection, after peak concentration
Description: FIG. 15 is a graph of fluorescence measurements obtained from a patient over a period of about 10 hours after injection of an exogenous fluorescence agent (MB-102) after a pre-injection period of about 3 hours. Referring to FIG. 15, the pre-injection/baseline period 1502 is characterized by a relatively low and stable fluorescence level, likely due the absence of […] fluorescent agent in the blood of the patient. […] Without being limited to any particular theory, it is thought the injected exogenous fluorescence agent is likely equilibrated across the extra-cellular space once the decay of the fluorescence is well-described by a […] (or a line on semi-log plot).

light absorption relative to HbO2 and Hb ([1]; at the isosbestic wavelength of 452 nm): more than three-fold higher
emission peak wavelength ([1]; emission spectrum): about 550 nm
time course of fluorescence after injection [3]: relatively smooth exponential decrease
SMILES: Nc1nc(C(=O)N[C@H](CO)C(=O)O)c(N)nc1C(=O)N[C@H](CO)C(=O)O [MB-102]
time course of corrected intrinsic fluorescence (IF) signal [2]: expected single-exponential decay of the signal

From US11950907B2, “Method for non-invasive monitoring of fluorescent tracer agent with diffuse reflecting medium with time-varying optical properties” (MediBeacon Inc., priority 2017, dated 2024)
